Test results reported in patent US10730895B2, “Carbidopa prodrug” (AbbVie Inc., priority 2014, dated 2020).

Experiments:
[1] = Solubility study in water by visual assessment; format: physicochemical; settings: for solubility: thermodynamic from solid, water, ambient
Description: The L-dopa phosphate prodrugs and the carbidopa phosphate prodrugs were evaluated in a solubility study. The solubility values of the phosphate prodrugs in water under ambient conditions were determined by visual assessment. Table 13-A reports the results of the study, including the measured values for L-dopa and carbidopa.

[2] = Pharmacokinetic study in rats, individual prodrug IV or SC; format: in vivo, Sprague-Dawley rats; settings: rat; for AUC: male, Sprague-Dawley, plasma, dose 1.25 mg/kg, L-dopa and carbidopa in aqueous solution, read-out: Carbidopa AUCO-8 h; for Estimated Conversion % (Based on L-dopa AUC): dose 8.5 mg/kg
Description: For comparison, a rat pharmacokinetics study with L-dopa and carbidopa was conducted to help assess the in vivo conversion of the prodrugs. The study design and measured exposures of L-dopa and carbidopa are summarized in Tables 16-A and 16-B, respectively. In brief, groups of three male Sprague-Dawley rats were given (1) L-dopa and carbidopa in aqueous solution, or (2) the individual prodrug in aqueuous solution intravenously or subcutaneously. Blood samples were collected at multiple time points over 24 hours into a collection tube containing NaAsO4, EDTA, and ascorbic acid. […] The supernatants were subjected to LC-MS analysis for quantitation of prodrug, L-dopa or carbidopa.

[3] = Carbidopa diphosphate pharmacokinetics study in mini-pigs; format: in vivo; settings: for Estimated Conversion % (Based on Carbidopa AUC): mini-pig, SC, dose 8.5 mg/kg
Description: The in vivo conversion of the carbidopa diphosphate to carbidopa was evaluated in a mini-pig pharmacokinetics study in which the prodrug was administered in aqueous solution subcutaneously to a group of three mini-pigs. For comparison, a pharmacokinetics study with carbidopa also was conducted to help assess the in vivo conversion of the carbidopa prodrugs. The estimated in vivo conversion of the carbidopa diphosphate to carbidopa was approximately 100%, based on the carbidopa exposures.

[4] = 1-day stability study of individual prodrugs in aqueous solution; format: physicochemical; settings: aqueous solution 80 μg/mL, ambient storage
Description: The L-dopa phosphate prodrugs and the carbidopa phosphate prodrugs were evaluated in a stability study.

[5] = 1-day stability study, diphosphate combination solution; format: physicochemical; settings: combined solution L-dopa 3′,4′-diphosphate 35 mg/mL + carbidopa 3′,4′-diphosphate 8.7 mg/mL, pH 6.2, room temperature, nitrogen purged
Description: In addition, a solution combining the diphosphates of each compound (L-dopa 3′, 4′-diphosphate at 35 mg/mL and carbidopa 3′, 4′-diphosphate at 8.7 mg/mL) was monitored over one day at room temperature. This sample was purged with nitrogen to remove oxygen.

[6] = In vitro bioconversion study, blood (human); format: in vitro ADME; settings: for T1/2 / half-life at 2.5 ug/mL: prodrug 2.5 ug/mL, 37° C.
Description: (§1) In brief, the L-dopa and carbidopa phosphate prodrugs (2.5 ug/mL) were incubated with tissue homogenate or fractions from rats, mini-pigs, or human, including blood, skin homogenate (3 mg/mL), liver microsomes (1 mg/mL), liver S9 fraction (1 mg/mL), kidney S9 fraction (1 mg/mL), and intestine S9 fractions (1 mg/mL). The reaction mixtures were incubated at 37° C. for 5 to 6 time points within 1 to 2 hours. At the end of each time point, the reaction mixtures were quenched by 2 to 3 volumes of 5% trichloroacetic acid in water. After quenching, the mixtures were centrifuged at 3000 rpm for 20 minutes, and the supernatants were analyzed by LC-MS for quantitation of the prodrug, L-dopa or carbidopa. The in vitro bioconversion was assessed by monitoring both time-dependent depletion of the prodrug and the formation of the corresponding L-dopa or carbidopa.

[7] = In vitro bioconversion study, blood (rat); format: in vitro ADME; settings: for half-life at 2.5 ug/mL: prodrug 2.5 ug/mL, 37° C.
Description: as §1

[8] = In vitro bioconversion study, blood (mini-pig); format: in vitro ADME; settings: for T1/2 / half-life at 2.5 ug/mL: prodrug 2.5 ug/mL, 37° C.; for half-life at 2.5 ug/mL: minipig
Description: as §1

[9] = In vitro bioconversion study, skin homogenates (human); format: in vitro ADME; settings: for L-Dopa or Carbidopa Formation: human skin homogenate; for T1/2 / half-life at 2.5 ug/mL: human skin homogenate 3 mg/mL, 37° C.
Description: (§2) The in vitro bioconversion of the L-dopa phosphate prodrugs to L-dopa and the carbidopa phosphate prodrugs to carbidopa was evaluated in several studies. In brief, the L-dopa and carbidopa phosphate prodrugs (2.5 ug/mL) were incubated with tissue homogenate or fractions from rats, mini-pigs, or human, including blood, skin homogenate (3 mg/mL), liver microsomes (1 mg/mL), liver S9 fraction (1 mg/mL), kidney S9 fraction (1 mg/mL), and intestine S9 fractions (1 mg/mL). The reaction mixtures were incubated at 37° C. for 5 to 6 time points within 1 to 2 hours. At the end of each time point, the reaction mixtures were quenched by 2 to 3 volumes of 5% trichloroacetic acid in water. After quenching, the mixtures were centrifuged at 3000 rpm for 20 minutes, and the supernatants were analyzed by LC-MS for quantitation of the prodrug, L-dopa or carbidopa. The in vitro bioconversion was assessed by monitoring both time-dependent depletion of the prodrug and the formation of the corresponding L-dopa or carbidopa.

[10] = In vitro bioconversion study, skin homogenates (rat); format: in vitro ADME; settings: for L-Dopa or Carbidopa Formation: rat skin homogenate; for T1/2 / half-life at 2.5 ug/mL: rat skin homogenate 3 mg/mL, 37° C.
Description: as §1

[11] = In vitro bioconversion study, skin homogenates (mini-pig); format: in vitro ADME; settings: for L-Dopa or Carbidopa Formation: mini-pig skin homogenate; for T1/2 / half-life at 2.5 ug/mL: mini-pig skin homogenate 3 mg/mL, 37° C.; for half-life at 2.5 ug/mL: minipig
Description: as §1

[12] = In vitro bioconversion study, human liver microsomes; format: in vitro ADME; settings: human liver microsomes 1 mg/mL
Description: as §2

[13] = In vitro bioconversion study, liver S9 fraction (rat); format: in vitro ADME; settings: rat liver S9 fraction 1 mg/mL
Description: as §2

[14] = In vitro bioconversion study, liver S9 fraction (mini-pig); format: in vitro ADME; settings: mini-pig liver S9 fraction 1 mg/mL
Description: as §2

[15] = In vitro bioconversion study, liver S9 fraction (human); format: in vitro ADME; settings: human liver S9 fraction 1 mg/mL
Description: as §2

[16] = In vitro bioconversion study, kidney S9 fraction (rat); format: in vitro ADME; settings: rat kidney S9 fraction 1 mg/mL
Description: as §2

[17] = In vitro bioconversion study, kidney S9 fraction (human); format: in vitro ADME; settings: human kidney S9 fraction 1 mg/mL
Description: as §2

[18] = In vitro bioconversion study, intestinal S9 fractions (human); format: in vitro ADME; settings: for L-Dopa or Carbidopa Formation: human intestinal S9 fraction; for half-life at 2.5 ug/mL: human intestinal S9 fraction 1 mg/mL
Description: as §2

[19] = In vitro bioconversion study, intestinal S9 fractions (rat); format: in vitro ADME; settings: for L-Dopa or Carbidopa Formation: rat intestinal S9 fraction; for half-life at 2.5 ug/mL: rat intestinal S9 fraction 1 mg/mL
Description: as §2

[20] = 7-day stability study, 4′-monophosphate combination solution; format: physicochemical; settings: combined solution L-dopa 4′-monophosphate 200 mg/mL + carbidopa 4′-monophosphate 50 mg/mL, pH 7.4, room temperature
Description: In addition, a solution combining the L-dopa 4′-monophosphate at 200 mg/mL and carbidopa 4′-monophosphate at 50 mg/mL was monitored over 7 days at room temperature. These samples were prepared with and without purging with nitrogen to remove oxygen.

[21] = format: in vivo, rats; settings: rat, 4:1 combination, SC bolus 60/14 mg/kg then SC infusion 300/71 mg/kg
Description: After 1.5 hours, the combination was dosed again via continuous infusion at a dose of 300/71 mg/kg over next 14.5 hours. Blood samples were collected at 0, 0.25, 1, 6, 16, and 24 hours post dose. […] FIG. 7 provides a time-concentration profile for L-dopa and L-dopa 4′-monophosphate blood levels after administration of the combination of 4′-monophosphate prodrugs at a 4:1 ratio. […] Steady state concentration of ˜1 μg/mL was maintained over the infusion period for carbidopa. […] FIG. 9 provides a time-concentration profile for carbidopa and carbidopa 4′-monophosphate blood levels after administration of the combination of 4′-monophosphate prodrugs at a 4:1 ratio.

[22] = mini-pig, 15:1 combination 48/3.2 mg/kg
Description: In this study, the pig received a 16-hour subcutaneous infusion of a combination of the L-dopa 4′-monophosphate and the carbidopa 4′-monophosphate together in an aqueous solution at a dose ratio of 15:1 without an initial bolus dose. The doses were 48/3.2 mg/kg for L-dopa 4′-monophosphate and the carbidopa 4′-monophosphate, respectively.

[23] = Local tolerability, single SC bolus in rats; format: in vivo; settings: concentrations up to 125 mg/mL
[24] = listed as 3′,4′-diphosphate prodrug of carbidopa
[25] = listed as diphosphate prodrug of carbidopa

SMILES | % Remaining After One Day ([4]; pH 6.8) [%] | L-Dopa or Carbidopa Formation [6] | L-Dopa or Carbidopa Formation [7] | half-life at 2.5 ug/mL [7] [h] | L-Dopa or Carbidopa Formation [8] | L-Dopa or Carbidopa Formation [9] | L-Dopa or Carbidopa Formation [10] | L-Dopa or Carbidopa Formation [11] | stability and L-dopa or carbidopa formation [12] | stability and L-dopa or carbidopa formation [13] | stability and L-dopa or carbidopa formation [14] | stability and L-dopa or carbidopa formation [15] | stability and L-dopa or carbidopa formation [16] | stability and L-dopa or carbidopa formation [17] | L-Dopa or Carbidopa Formation [18] | half-life at 2.5 ug/mL [18] [h] | L-Dopa or Carbidopa Formation [19] | half-life at 2.5 ug/mL [19] [h] | half-life at 2.5 ug/mL [6] [h] | half-life at 2.5 ug/mL [8] [h] | also measured
C[C@@](Cc1ccc(O)c(O)c1)(NN)C(=O)O [Carbidopa, (2S)-3-(3,4-dihydroxyphenyl)-2-hydrazino-2-methylpropanoic acid] |  |  |  |  |  |  |  |  |  |  |  |  |  |  |  |  |  |  |  |  | solubility ([1]; pH 4-7, crystalline (carbidopa: crystalline monohydrate)): < 4 mg/mL; AUC ([2]; IV): 860 ng·h/mL; AUC ([2]; SC): 685 ng·h/mL; AUC ([3]; minipig, in vivo, sc, 2 mg/kg): 1610 ng·h/mL
C[C@@](Cc1ccc(OP(=O)(O)O)c(OP(=O)(O)O)c1)(NN)C(=O)O [Carbidopa 3′,4′-diphosphate] | >97 | No | Yes | 0.883 | No | No | No | No | stable without formation of L-dopa or carbidopa observed | stable without formation of L-dopa or carbidopa observed | stable without formation of L-dopa or carbidopa observed | stable without formation of L-dopa or carbidopa observed | stable without formation of L-dopa or carbidopa observed | stable without formation of L-dopa or carbidopa observed | Yes | 0.525 | Yes | 1.32 |  |  | % Remaining After One Day [5]: >99%; solubility ([1]; pH 5.5, amorphous): > 247 mg/mL; T1/2 [6, 24]: stable; T1/2 [6, 25]: not dephosphorylated; T1/2 [8, 24]: stable; T1/2 [8, 25]: not dephosphorylated; T1/2 [9]: stable; T1/2 [10]: stable; T1/2 [11]: stable; Estimated Conversion % (Based on Carbidopa AUC) [3, 24]: 100%; Estimated Conversion % (Based on Carbidopa AUC) ([3]; listed as carbidopa diphosphate): approximately 100%
C[C@@](Cc1ccc(OP(=O)(O)O)c(O)c1)(NN)C(=O)O [Carbidopa 4′-phosphate, Carbidopa 4′-monophosphate] | >98 | Yes | Yes | 0.248 | Yes | Yes | Yes | Yes | stable without formation of L-dopa or carbidopa observed | stable without formation of L-dopa or carbidopa observed | stable without formation of L-dopa or carbidopa observed | stable without formation of L-dopa or carbidopa observed | stable without formation of L-dopa or carbidopa observed | stable without formation of L-dopa or carbidopa observed | Yes | 0.402 | Yes | 1.23 | 1.08 | 0.147 | % Remaining After 7 Days ([20]; Nitrogen Purged): >99%; % Remaining After 7 Days ([20]; Non-Purged): >97%; solubility compared to L-dopa and carbidopa ([1]; FIG. 1, pH of 7.4): increased solubility; solubility ([1]; pH 7.4, L-dopa 4′-phosphate crystalline, carbidopa 4′-phosphate amorphous): > 200 mg/mL; half-life at 2.5 ug/mL [9]: 2.3 h; half-life at 2.5 ug/mL [10]: 4.52 h; half-life at 2.5 ug/mL [11]: 1.9 h; Exposure of the remaining carbidopa 4′-monophosphate, % of carbidopa [21]: ~8%; Exposure of the remaining carbidopa 4′-monophosphate, % of the carbidopa exposure [22]: ~22%
C[C@@](Cc1ccc(O)c(OP(=O)(O)O)c1)(NN)C(=O)O [Carbidopa 3′-phosphate, Carbidopa 3′-monophosphate] |  | Yes | Yes | 0.342 | Yes | Yes | Yes | Yes |  |  |  |  |  |  |  |  |  |  | 0.967 | 0.148 | % Remaining After One Day ([4]; pH 6.5): >94%; solubility ([1]; pH 7.1, amorphous): > 96 mg/mL; half-life at 2.5 ug/mL [9]: 10 h; half-life at 2.5 ug/mL [10]: 12.1 h; half-life at 2.5 ug/mL [11]: 6.88 h
N[C@@H](Cc1ccc(OP(=O)(O)O)c(OP(=O)(O)O)c1)C(=O)O [L-dopa 3′,4′-diphosphate] |  | Yes | Yes | 0.1 | Yes | No | No | No | stable without formation of L-dopa or carbidopa observed | stable without formation of L-dopa or carbidopa observed | stable without formation of L-dopa or carbidopa observed | stable without formation of L-dopa or carbidopa observed | stable without formation of L-dopa or carbidopa observed | stable without formation of L-dopa or carbidopa observed | Yes | 1.53 | Yes | 0.903 | 2.3 | 2.08 | % Remaining After One Day ([4]; pH 7.0): >99%; % Remaining After One Day [5]: >99%; solubility ([1]; pH 5.5, amorphous): > 330 mg/mL; T1/2 [9]: stable; T1/2 [10]: stable; T1/2 [11]: stable; Estimated Conversion % (Based on L-dopa AUC) ([2]; IV): >100%; Estimated Conversion % (Based on L-dopa AUC) ([2]; SC): >100%; local intolerance (clinical signs, microscopic findings) [23]: no adverse clinical signs or microscopic findings indicative of local intolerance
